What was measured:
[1] = tested on: mouse embryonic stem cell line E14Tg2a; test: tert-butyl hydroperoxide (tBHP) challenge of mES cells, MTT viability assay; format: cell-based
Experimental: The mouse embryonic stem cell line E14Tg2a was maintained in a pluripotent state in knockout (KO) DMEM supplemented with leukaemia inhibitory factor (LIF), 15% (v/v) knockout serum replacement, 0.1 mM MEM non-essential amino acids, 2 mM 1-glutamine and 140 μM 2-mercaptoethanol in tissue culture flasks coated with 0.1% (w/v) gelatin.
(§1) mES cells were plated into a 0.1% (w/v) gelatin coated 96-well tissue culture plate at a density of 1.5×10^4 cells per well. The cells were cultured at 37° C. in an atmosphere of 5% CO2 for 20-24 hours before the addition of AO3003, 30 minutes prior to the onset of the tert-butyl hydroperoxide (tBHP) challenge. The cells were incubated with tBHP for 90 minutes at 37° C. (5% CO2) before 20 μl 5 mg/ml 3-(4,5-Dimethyl-2-thiazolyl)-2,5-diphenyl-2H-tetrazolium bromide (MTT) was added to each of the treatment wells. The cells were incubated for a further 3 hours at 37° C. (5% CO2) before all the supernatant was removed from the cells and the insoluble MTT formazan dye, produced by the reduction of MTT by viable cells, was solubilised in 200 μl dimethyl sulfoxide (DMSO). The absorbance of the resulting solution was measured at 540 nm and was proportional to the number of viable mES cells remaining after the tBHP challenge.
as §1, with “of 7.5×10^3” for “of 1.5×10^4”, “AO3003, 20 hours” for “AO3003, 30 minutes”, “insoluble MIT” for “insoluble MTT”

[2] = tested on: mouse β-cell insulinoma line MIN-6; test: tert-butyl hydroperoxide (tBHP) challenge of MIN-6 cells, MTT viability assay; format: cell-based; conditions: compound added 30 minutes prior to tBHP, FIG. 3
Experimental: The mouse β-cell insulinoma line MIN-6 was maintained in high glucose DMEM supplemented with 15% heat-inactivated foetal bovine serum (FBS) and 70 μM 2-mercaptoethanol.
as §1, with “MIN-6 cells were” for “mES cells were”, “into a 96-well tissue” for “into a 0.1% (w/v) gelatin coated 96-well tissue”, “density of 2.0×10^4 cells per” for “density of 1.5×10^4 cells per”, “tBHP for 30 minutes at” for “tBHP for 90 minutes at”, “reduction of MIT by viable” for “reduction of MTT by viable”, “tBHP challenge. DMEM is the control viability of cells without peroxide or tBHP.” for “tBHP challenge.”

O=c1c(O)c(-c2cc(O)c(O)c(O)c2)oc2cc(C3CCCCC3)ccc12 [AO3003]
reversal of oxidative stress-induced loss of viability ([1]; 2 μM, compound added 20 hours prior to tBHP challenge, MTT, FIG. 2): significantly reverses oxidative stress-induced loss of viability
toxicity (control cell viability without tBHP) ([1]; cell viability at 24 h after 0, 1 and 2 μM exposure): not toxic
period the compound remains bioprotective once incorporated into the cell ([1]; mES cells, tBHP challenge, Experiment 2): > 24 h
protection against oxidative stress ([1]; mouse embryonic stem cell line, tBHP, summary of Experiments 1 and 2): protects against oxidative stress
protection against oxidative stress [2]: protects against oxidative stress
